The record followed here is US20230000813A1, “COMPOUND FOR THE TREATMENT OF BOVINE OR SWINE RESPIRATORY DISEASE” (Intervet Inc., priority 2016, published 2023).

≈ marks a conversion by molar mass, not a printed value.

Test in all cases: MIC, broth-microdilution (CLSI VET01-A4)
Type in all cases: cell-based
In general terms: Dilution methods test growth across graded concentrations, often in twofold steps.

In test [1] the test system is Mannheimia haemolytica MH 10720 (154, BRD field isolate). The conditions noted are these: Mannheimia haemolytica MH 10720. The procedure, abridged: (§1)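 Doubling dilution series in microdilution trays; endpoint = lowest conc. without visible growth (no turbidity, unaided eye); interpretation per CLSI VET01-S3.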
The test system of test [2] is Mannheimia haemolytica MH 12587 (1071, BRD field isolate, macrolide-resistance: erm+, E+). The conditions noted are these: Mannheimia haemolytica MH 12587, macrolide-resistant. A digest of the protocol:
as §1

In test [3] the test system is Mannheimia haemolytica MH 6357 (M7/2, reference strain, cattle infection strain). The conditions noted are these: Mannheimia haemolytica MH 6357; read-out: MIC MH 6357. A digest of the protocol:
as §1

In test [4] the test system is Mannheimia haemolytica MH 6374 (ATCC 33396, reference strain). The conditions noted are these: Mannheimia haemolytica MH 6374; read-out: MIC MH 6374. A digest of the protocol: as §1
Test [5] deals with Pasteurella multocida PM 10775 (080130003051, BRD field isolate). As to conditions: Pasteurella multocida PM 10775. The procedure, abridged:
as §1

The subject of test [6] is Pasteurella multocida PM 12080 (IV102277-0093, BRD field isolate). The conditions noted are these: Pasteurella multocida PM 12080; for MIC: read-out: MIC PM 12080. The procedure, abridged: as §1
In test [7] the test system is Pasteurella multocida PM 6267 (P 2225 (L386), reference strain, mouse infection strain). The conditions noted are these: Pasteurella multocida PM 6267. The procedure, abridged: as §1
The subject of test [8] is Pasteurella multocida PM 6391 (ATCC 43137, reference strain). The conditions noted are these: Pasteurella multocida PM 6391; read-out: MIC PM 6391. A digest of the protocol: as §1
Test [9] concerns Mannheimia haemolytica MH 13065 (XB0446-6003.9, BRD field isolate). The procedure, abridged:
(§2)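 MIC read by eye as lowest compound concentration without visible growth (no turbidity), interpreted per CLSI VET01-S3. Doubling-dilution broth-microdilution trays, run according to CLSI VET01-A4.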

The subject of test [10] is Mannheimia haemolytica MH 13093 (XB0472-6014.1, BRD field isolate). A digest of the protocol: as §2

For the compound `CC(C)(N)C(NC(=O)c1ccc(C#Cc2ccc(CNCC(F)(F)F)cc2)cc1)C(=O)NO` (racemic) [Compound 623], the “MIC MH 10720” value in test [1] was “<=0.1 μM”. Moreover, the “MIC MH 12587” value in [2] is 1.6 µM (≈ 0.74 µg/mL). Also, the minimum inhibitory concentration (MIC) is given as 0.8 µM (≈ 0.37 µg/mL) in test [3]; 0.4 µM (≈ 0.185 µg/mL) in [4]; 0.2 µM (≈ 0.0925 µg/mL) in test [8]; 0.8 µM (≈ 0.37 µg/mL) in [9]; 0.8 µM (≈ 0.37 µg/mL) in test [10]. In addition, the “MIC PM 10775” value in [5] is recorded as “<=0.1 μM”. For the same compound, the “MIC PM 12080” value in test [6] is on record as “<=0.1 μM”. Besides, in test [7], the “MIC PM 6267” value was “<=0.1 μM”.

`C#CCNCc1ccc(C#Cc2ccc(C(=O)NC(C(=O)NO)C(C)(C)N)cc2)s1` (racemic) [Compound 633]: in [1], the “MIC MH 10720” value was “<=0.1 μM”. Besides, in [2], the “MIC MH 12587” value came out at 0.8 µM (≈ 0.34 µg/mL). In addition, the MIC in [3] came out at 0.8 µM (≈ 0.34 µg/mL); in test [4], 0.4 µM (≈ 0.17 µg/mL); in [6] it was 0.2 µM (≈ 0.0849 µg/mL); in test [8] it was 0.2 µM (≈ 0.0849 µg/mL); in test [9] it was 0.8 µM (≈ 0.34 µg/mL); in test [10], 0.8 µM (≈ 0.34 µg/mL). Moreover, the “MIC PM 10775” value in test [5] is listed as “<=0.1 μM”. Also, the “MIC PM 6267” value in [7] is “<=0.1 μM”.

For the compound `CSCCNCc1ccc(C#Cc2ccc(C(=O)NC(C(=O)NO)C(C)(C)N)cc2)s1` (racemic) [Compound 635], the “MIC MH 10720” value in test [1] is given as “<=0.1 μM”. For the same compound, the “MIC MH 12587” value in test [2] was found to be 1.6 µM (≈ 0.737 µg/mL). Moreover, the MIC in test [3] was found to be 1.6 µM (≈ 0.737 µg/mL); in [4], 0.4 µM (≈ 0.184 µg/mL); in [8], 0.4 µM (≈ 0.184 µg/mL); in [9] it was 0.8 µM (≈ 0.369 µg/mL); in test [10] it was 0.8 µM (≈ 0.369 µg/mL). The “MIC PM 10775” value in test [5] is “<=0.1 μM”. Moreover, the “MIC PM 12080” value in [6] is listed as “<=0.1 μM”. Moreover, the “MIC PM 6267” value in [7] is listed as “<=0.1 μM”.

`Cc1cnc(CNCc2ccc(C#Cc3ccc(C(=O)NC(C(=O)NO)C(C)(C)N)cc3)s2)o1` (racemic) [Compound 636]: the “MIC MH 10720” value in test [1] is given as “<=0.1 μM”. In [2], the “MIC MH 12587” value was found to be 1.6 µM (≈ 0.771 µg/mL). Also, the minimal inhibitory concentration (MIC) came to 0.8 µM (≈ 0.385 µg/mL) in [3]; 0.4 µM (≈ 0.193 µg/mL) in test [4]; 0.4 µM (≈ 0.193 µg/mL) in test [6]; 0.4 µM (≈ 0.193 µg/mL) in test [8]; 1.6 µM (≈ 0.771 µg/mL) in test [9]; 0.8 µM (≈ 0.385 µg/mL) in [10]. Moreover, the “MIC PM 10775” value in test [5] is “<=0.1 μM”. Further, the “MIC PM 6267” value in [7] is recorded as “<=0.1 μM”.

Turning to `CC(C)(N)C(NC(=O)c1ccc(C#Cc2ccc(CNCc3ccc(F)cc3)s2)cc1)C(=O)NO` (racemic) [Compound 637], the “MIC MH 10720” value in test [1] is reported as “<=0.1 μM”. For the same compound, the “MIC MH 12587” value in [2] stood at 1.6 µM (≈ 0.791 µg/mL). For the same compound, the MIC in [3] is reported as 0.8 µM (≈ 0.396 µg/mL); in test [4], 0.4 µM (≈ 0.198 µg/mL); in [5] (read-out: MIC PM 10775) it was 0.2 µM (≈ 0.0989 µg/mL); in [6], 0.2 µM (≈ 0.0989 µg/mL); in [8] it was 0.4 µM (≈ 0.198 µg/mL); in test [9] it was 1.6 µM (≈ 0.791 µg/mL). In test [10], this compound registered an MIC of 0.8 µM (≈ 0.396 µg/mL). The “MIC PM 6267” value in test [7] was “<=0.1 μM”.

For the compound `C#CCNCc1ccc(C#Cc2ccc(C(=O)NC(C(=O)NO)C(C)(C)N)cc2)cn1` (racemic) [Compound 647], the MIC in test [1] (read-out: MIC MH 10720) is 0.4 µM (≈ 0.168 µg/mL); in test [3] it was 1.6 µM (≈ 0.671 µg/mL); in test [4] it was 0.8 µM (≈ 0.336 µg/mL); in test [6] it was 0.4 µM (≈ 0.168 µg/mL); in test [8], 0.4 µM (≈ 0.168 µg/mL); in test [9], 0.8 µM (≈ 0.336 µg/mL). Also, the MIC in test [10] was 0.8 µM (≈ 0.336 µg/mL). The “MIC MH 12587” value in test [2] is 1.6 µM (≈ 0.671 µg/mL). Further, the “MIC PM 10775” value in test [5] is given as “<=0.1 μM”. Besides, in [7], the “MIC PM 6267” value is “<=0.1 μM”.

In the case of `CC(C)(N)C(NC(=O)c1ccc(C#Cc2ccc(CNCC(F)(F)F)s2)cc1)C(=O)NO` (racemic) [Compound 648], the “MIC MH 10720” value in test [1] is given as “<=0.1 μM”. Further, in [2], the “MIC MH 12587” value was 0.8 µM (≈ 0.375 µg/mL). Further, the MIC in test [3] turned out to be 0.8 µM (≈ 0.375 µg/mL); in test [4], 0.4 µM (≈ 0.187 µg/mL); in [6] it was 0.2 µM (≈ 0.0937 µg/mL); in test [8], 0.4 µM (≈ 0.187 µg/mL); in test [9] it was 0.4 µM (≈ 0.187 µg/mL); in test [10], 1.6 µM (≈ 0.75 µg/mL). Moreover, the “MIC PM 10775” value in [5] is “<=0.1 μM”. In addition, the “MIC PM 6267” value in test [7] is listed as “<=0.1 μM”.

The term MIC denotes the lowest concentration that inhibits growth of the organism.
